Experimental data as given in PubChem BioAssay (NCI).
Several values for one entry are separate records, joined by “and”; a condition that tells them apart may be missing. Equal entries are not always repeated.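 Exposure lasted 48 hours, with cells grown in 96-well plates and compounds tested at five concentrations. Here, GI50 denotes the concentration required for 50% inhibition of growth. TGI: total growth inhibition.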

What was measured:
Experiment in all cases: DTP human tumour cell line panel, 48 h
COLO 205 colon = tested on: COLO 205 colon
DU-145 prostate = tested on: DU-145 prostate
HCT-15 colon = tested on: HCT-15 colon
HOP-62 NSCLC = tested on: HOP-62 NSCLC
IGROV1 ovarian = tested on: IGROV1 ovarian
MDA-MB-231 breast = tested on: MDA-MB-231 breast
NCI-H226 lung = tested on: NCI-H226 lung
NCI-H522 lung = tested on: NCI-H522 lung
SK-MEL-5 melanoma = tested on: SK-MEL-5 melanoma
SR leukemia = tested on: SR leukemia

SMILES	GI50 (COLO 205 colon)	TGI (COLO 205 colon)	GI50 (DU-145 prostate)	TGI (DU-145 prostate)	GI50 (HCT-15 colon)	TGI (HCT-15 colon)	GI50 (HOP-62 NSCLC)	TGI (HOP-62 NSCLC)	GI50 (IGROV1 ovarian)	TGI (IGROV1 ovarian)	GI50 (MDA-MB-231 breast)	TGI (MDA-MB-231 breast)	GI50 (NCI-H226 lung)	TGI (NCI-H226 lung)	GI50 (NCI-H522 lung)	TGI (NCI-H522 lung)	GI50 (SK-MEL-5 melanoma)	TGI (SK-MEL-5 melanoma)	GI50 (SR leukemia)	TGI (SR leukemia)
Nc1c(C(=O)Nc2cccc(Br)c2)sc2nc3c(cc12)C(O)CCC3 (stereo not given)	0.41 µM	> 32 µM	0.455 µM	22.4 µM	0.35 µM	> 100 µM	0.575 µM	48.3 µM	0.833 µM	> 70.3 µM	2.24 µM	> 85.7 µM	0.936 µM	54.4 µM	0.412 µM	> 67.6 µM	0.455 µM	> 45.4 µM	0.228 µM	> 46 µM
Cc1ccc2c(c1)C(=O)c1c-2n(CCCN=[N+]=[N-])c(=O)c2cc([N+](=O)[O-])ccc12	> 100 µM	> 100 µM	> 100 µM	> 100 µM	> 100 µM	> 100 µM	71.7 µM	> 100 µM	19.2 µM	> 100 µM	46.9 µM	> 100 µM	> 100 µM	> 100 µM	25.8 µM	> 100 µM	97.6 µM	> 100 µM	8.21 µM	63.1 µM
C=CCCC(=O)N1C=CC(=O)[C@H](O)[C@@H]1/C=C/c1ccccc1	10.9 µM	> 32.5 µM	10.4 µM	> 32.5 µM	2.39 µM	> 32.5 µM	13.3 µM	> 32.5 µM	9.4 µM	> 32.5 µM	18.6 µM	> 32.5 µM	9.57 µM	> 32.5 µM	> 32.5 µM	> 32.5 µM	3.93 µM	12.3 µM	4.28 µM	> 32.5 µM
CN(C)CCNc1nc2ccccc2c2c(=O)c3ccccc3sc12	1.44 µM	3.08 µM	2.31 µM	6.83 µM	1.97 µM	4.85 µM	1.94 µM	4.29 µM	1.81 µM	4.53 µM	1.34 µM	3.64 µM	1.77 µM	5.82 µM	1.7 µM	3.41 µM	1.58 µM	3 µM	1.66 µM	4.69 µM
O=C(O)C(=O)CBr	> 70.1 µM and 17.6 µM	> 100 µM and 39.5 µM	> 61.9 µM and 17 µM	> 100 µM and 31.4 µM	> 35.2 µM and 17.3 µM	> 53.1 µM and 33.1 µM	> 100 µM and 19.3 µM	> 100 µM and 38.1 µM	33.5 µM and 62.1 µM	> 100 µM	> 100 µM	> 100 µM	> 100 µM	> 100 µM	2.22 µM	> 31.9 µM and 4.66 µM	> 100 µM and 65.8 µM	> 100 µM	> 21.1 µM and 25.8 µM	> 64.8 µM and 71.1 µM
COc1ccc(NC(=O)/C=C(C)/C=C/C=C(C)\C=C\C2=C(C)CCCC2(C)C)cc1	75.9 µM	> 100 µM	> 100 µM	> 100 µM	> 100 µM	> 100 µM	> 100 µM	> 100 µM	54.3 µM	> 100 µM	5.21 µM	59 µM	> 100 µM	> 100 µM	28.2 µM	> 100 µM	40.9 µM	> 100 µM	28.8 µM	80.8 µM
